Source: DBAASP
≈ marks a conversion by molar mass, not a printed value. Where “and” joins values, the source holds several entries; their conditions need not be identical. Identical values can stand only once.

What was measured:
Assay in all cases: ≥ marks a high value that may be exact or a test limit, other limits are often not marked, values filed in µg/mL are converted to µM
[1] = tested on: Lacticaseibacillus rhamnosus 1.0936
[2] = tested on: Salmonella enterica subsp. enterica serovar Typhimurium ATCC 14028
[3] = tested on: Staphylococcus aureus ATCC 29213
[4] = tested on: Salmonella enterica subsp. enterica serovar Pullorum C79-13
[5] = tested on: Salmonella enterica subsp. enterica serovar Choleraesuis CVCC 503
[6] = tested on: Pseudomonas aeruginosa ATCC 27853
[7] = tested on: Staphylococcus aureus ATCC 43300
[8] = tested on: Streptococcus agalactiae BNCC 185941
[9] = tested on: Staphylococcus epidermidis ATCC 12228
[10] = tested on: Lacticaseibacillus rhamnosus 1.0911
Escherichia coli K88 = tested on: Escherichia coli K88
[11] = tested on: Escherichia coli ATCC 25922
[12] = tested on: Lacticaseibacillus rhamnosus 1.9021
[13] = tested on: Pseudomonas aeruginosa PAO1
[14] = tested on: Lacticaseibacillus rhamnosus 8014
[15] = tested on: Escherichia coli O157:H7 CICC 21530
[16] = tested on: Legionella pneumophila Lens
Micrococcus luteus A270 = tested on: Micrococcus luteus A270
[17] = tested on: Escherichia coli DH5alpha
[18] = tested on: Pseudomonas aeruginosa PA14
[19] = tested on: Escherichia coli K12 MG1655

## CC(C)C[C@H](NC(=O)CNC(=O)[C@H](CC(C)C)NC(=O)[C@H](CS)NC(=O)[C@H](CC(C)C)NC(=O)CNC(=O)[C@H](CC(C)C)NC(=O)[C@H](CCCCN)NC(=O)[C@@H](N)CCCCN)C(=O)N[C@@H](CCCCN)C(=O)N[C@@H](CCCCN)C(N)=O [KKLGLCLGLKK]
[1]
  MIC: ≥ 128 µM
[2]
  MIC: 64 µM (≈ 76.8 µg/mL)
[3]
  MIC: 128 µM (≈ 154 µg/mL)
[4]
  MIC: 8 µM (≈ 9.6 µg/mL)
[5]
  MIC: ≥ 64 µM
[6]
  MIC: 64 µM (≈ 76.8 µg/mL)
[7]
  MIC: 64 µM (≈ 76.8 µg/mL)
[8]
  MIC: ≥ 128 µM
[9]
  MIC: 128 µM (≈ 154 µg/mL)
[10]
  MIC: 16 µM (≈ 19.2 µg/mL)
Escherichia coli K88
  MIC: 16 µM (≈ 19.2 µg/mL)
[11]
  MIC: 32 µM and 64 µM
[12]
  MIC: ≥ 32 µM
[13]
  MIC: 32 µM (≈ 38.4 µg/mL)
[14]
  MIC: ≥ 64 µM
[15]
  MIC: 16 µM (≈ 19.2 µg/mL)

## CC[C@H](C)[C@H](NC(=O)[C@H](CC(C)C)NC(=O)CNC(=O)[C@H](CCCCN)NC(=O)[C@@H](NC(=O)[C@@H](NC(=O)[C@H](CCC(=O)O)NC(=O)[C@H](Cc1ccccc1)NC(=O)[C@H](Cc1ccccc1)NC(=O)[C@H](CCCCN)NC(=O)[C@H](C)NC(=O)[C@@H](NC(=O)[C@@H](NC(=O)[C@H](CC(=O)O)NC(=O)[C@H](C)NC(=O)[C@@H](N)CCSC)C(C)C)[C@@H](C)CC)[C@@H](C)CC)C(C)C)C(=O)N[C@@H](CC(=O)O)C(=O)N[C@@H](CCC(N)=O)C(=O)N[C@@H](Cc1ccccc1)C(=O)N[C@H](C(=O)N[C@@H](CCC(N)=O)C(=O)N[C@@H](CCCCN)C(=O)O)[C@@H](C)O [MADVIAKFFEIVKGLIDQFTQK]
[16]
  MIC: 2.44 µM (≈ 6.2 µg/mL)

## CC(C)C[C@H](NC(=O)CNC(=O)[C@@H](NC(=O)[C@H](CC(C)C)NC(=O)[C@H](C)NC(=O)[C@@H](N)C(C)C)[C@@H](C)O)C(=O)N[C@H](C(=O)N[C@H](C(=O)N[C@@H](C)C(=O)N[C@@H](CCC(=O)O)C(=O)N[C@@H](Cc1ccc(O)cc1)C(=O)N[C@@H](Cc1ccccc1)C(=O)N[C@@H](CCCN=C(N)N)C(=O)O)C(C)C)[C@@H](C)O [VALTGLTVAEYFR]
Micrococcus luteus A270
  MIC: 1.9 µM (≈ 2.74 µg/mL)
[3]
  MIC: 3.9 µM (≈ 5.61 µg/mL)
[6]
  MIC: 7.8 µM (≈ 11.2 µg/mL)
[17]
  MIC: 3.9 µM (≈ 5.61 µg/mL)
[18]
  MIC: 15.6 µM (≈ 22.5 µg/mL)
[19]
  MIC: 7.8 µM (≈ 11.2 µg/mL)
